Patent US9187472B2 (AbbVie Inc., priority 2012, dated 2015)

Experiments:
PC3 cells = experiment: NAMPT Cell Proliferation Assay; assay type: cell-based; conditions: Homo sapiens, PC-3, 120 h, 5 days incubation, cell viability by Cell Titer Glo
In short: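 Proliferation of PC3 cells treated 5 days with a 10-fold compound series (top 10 μM) was quantified by Cell Titer Glo luminescence; IC50s were fitted from percent inhibition.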

[1] = target: NAMPT (human, recombinant, C-terminally His-tagged) (Homo sapiens, UniProt P43490); experiment: Time-Resolved Fluorescence Resonance Energy Transfer (TR-FRET) Binding Assay of NAMPT; conditions: without substrates; 6.8 nM NAMPT, 200 nM probe, 3 hours equilibration
Sequence of NAMPT (human, recombinant, C-terminally His-tagged) (P43490 whole entry): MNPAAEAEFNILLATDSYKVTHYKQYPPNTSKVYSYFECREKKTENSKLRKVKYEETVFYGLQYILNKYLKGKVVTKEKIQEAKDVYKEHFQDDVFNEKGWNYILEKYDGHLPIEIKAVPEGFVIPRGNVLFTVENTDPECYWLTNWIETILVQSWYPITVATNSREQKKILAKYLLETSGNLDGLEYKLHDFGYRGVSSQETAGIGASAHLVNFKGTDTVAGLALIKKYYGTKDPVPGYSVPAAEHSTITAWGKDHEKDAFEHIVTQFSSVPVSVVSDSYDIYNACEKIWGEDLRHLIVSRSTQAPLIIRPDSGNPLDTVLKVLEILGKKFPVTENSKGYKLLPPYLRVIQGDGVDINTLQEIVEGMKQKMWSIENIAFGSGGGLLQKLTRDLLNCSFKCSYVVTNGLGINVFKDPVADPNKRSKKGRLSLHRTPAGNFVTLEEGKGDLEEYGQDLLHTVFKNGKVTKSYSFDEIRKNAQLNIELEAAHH
In short: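 In a displacement format, the nicotinamide-site tracer at 200 nM competed with test compound for 6.8 nM enzyme detected via 1 nM terbium anti-His antibody; incubation lasted 3 hours at room temperature in 50 mM HEPES pH 7.5, 100 mM NaCl. Normalized 520/495 nm emission ratios gave IC50 values.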

NAMPT = NAMPT (Homo sapiens, UniProt P43490); experiment: TR-FRET Binding Assay of NAMPT with PRPP; conditions: with 200 μM PRPP and 2.5 mM ATP; 2 nM NAMPT, 2 nM probe, 16 hours equilibration
Sequence of NAMPT (P43490 whole entry): as above
In short: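 Substrate-containing variant: 200 μM PRPP plus 2.5 mM ATP are added to 2 nM NAMPT and 2 nM probe, with a 16-hour incubation ahead of TR-FRET reading.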

Structure (SMILES) | IC50 (PC3 cells) | IC50 [1] | IC50 (NAMPT)
O=C(NCCCCC1CCN(C(=O)CC2CCOC2)CC1)Nc1ccc2nccn2c1 (stereo not drawn) [Example 73, 1-imidazo[1,2-a]pyridin-6-yl-3-{4-[1-(tetrahydrofuran-3-ylacetyl)piperidin-4-yl]butyl}urea] | 0.0595 µM | 0.605 µM | 0.000426 µM
CC(C)Cn1cc(-c2ccc(C(=O)NCc3ccc4nccn4c3)s2)cn1 [Example 75, N-(imidazo[1,2-a]pyridin-6-ylmethyl)-5-[1-(2-methylpropyl)-1H-pyrazol-4-yl]thiophene-2-carboxamide] | 0.00149 µM | 0.0122 µM | 0.000445 µM
O=C(CC1CCCO1)Nc1ccc(C(=O)NCc2ccc3nccn3c2)cc1 (stereo not drawn) [Example 77, N-(imidazo[1,2-a]pyridin-6-ylmethyl)-4-[(tetrahydrofuran-2-ylacetyl)amino]benzamide] | 0.0142 µM | 0.0561 µM | 0.00288 µM
O=C(CC1CCOC1)Nc1ccc(C(=O)NCc2ccc3nccn3c2)cc1 (stereo not drawn) [Example 78, N-(imidazo[1,2-a]pyridin-6-ylmethyl)-4-[(tetrahydrofuran-3-ylacetyl)amino]benzamide] | 0.0407 µM | 0.0565 µM | 0.0024 µM
CC(C)OCC(=O)Nc1ccc(C(=O)NCc2ccc3nccn3c2)cc1 [Example 82, N-(imidazo[1,2-a]pyridin-6-ylmethyl)-4-{[(propan-2-yloxy)acetyl]amino}benzamide] | 0.0679 µM | 0.357 µM | 0.00642 µM
CC(C)(C)OC(=O)N1CC=C(c2ccc(C(=O)NCc3ccc4nccn4c3)cc2)CC1 [Example 83, tert-butyl 4-{4-[(imidazo[1,2-a]pyridin-6-ylmethyl)carbamoyl]phenyl}-3,6-dihydropyridine-1(2H)-carboxylate] | 0.0243 µM | 0.899 µM | 0.0023 µM
O=C(CC1CCCC1)Nc1ccc(CNC(=O)c2ccc3nccn3c2)cc1 [Example 84, N-{4-[(cyclopentylacetyl)amino]benzyl}imidazo[1,2-a]pyridine-6-carboxamide] | 0.762 µM | 1.67 µM | 0.0109 µM
O=C(NCc1ccc2nccn2c1)c1cnc(N2CCC(c3ccccc3)C2)s1 (stereo not drawn) [Example 86, N-(imidazo[1,2-a]pyridin-6-ylmethyl)-2-(3-phenylpyrrolidin-1-yl)-1,3-thiazole-5-carboxamide] | 5.72 µM | 2.04 µM | 0.0119 µM
CC(C)CCNc1ncc(C(=O)NCc2ccc3nccn3c2)s1 [Example 87, N-(imidazo[1,2-a]pyridin-6-ylmethyl)-2-[(3-methylbutyl)amino]-1,3-thiazole-5-carboxamide] | 6.58 µM | 2.05 µM | 0.00135 µM
O=C(NCc1ccc2nccn2c1)c1cnc(N2Cc3ccccc3C2)s1 [Example 88, 2-(1,3-dihydro-2H-isoindol-2-yl)-N-(imidazo[1,2-a]pyridin-6-ylmethyl)-1,3-thiazole-5-carboxamide] | 8.11 µM | 2.85 µM | 0.00855 µM
CC(C)(C)OC(=O)N1CCC(c2ccc(NC(=O)Nc3ccc4nccn4c3)cc2)CC1 [Example 89, tert-butyl 4-{4-[(imidazo[1,2-a]pyridin-6-ylcarbamoyl)amino]phenyl}piperidine-1-carboxylate] | 0.113 µM | 0.667 µM | 0.000383 µM
CC(C)C(=O)N1CC=C(c2ccc(C(=O)NCc3ccc4nccn4c3)cc2)CC1 [Example 90, N-(imidazo[1,2-a]pyridin-6-ylmethyl)-4-[1-(2-methylpropanoyl)-1,2,3,6-tetrahydropyridin-4-yl]benzamide] | 0.0187 µM | 0.204 µM | 0.00063 µM
CC(C)(O)C(=O)N1CC=C(c2ccc(C(=O)NCc3ccc4nccn4c3)cc2)CC1 [Example 91, 4-[1-(2-hydroxy-2-methylpropanoyl)-1,2,3,6-tetrahydropyridin-4-yl]-N-(imidazo[1,2-a]pyridin-6-ylmethyl)benzamide] | 0.0139 µM | 0.174 µM | 0.00126 µM
O=C(NCc1ccc2nccn2c1)c1ccc(C2=CCN(C(=O)CN3CCOCC3)CC2)cc1 [Example 92, N-(imidazo[1,2-a]pyridin-6-ylmethyl)-4-[1-(morpholin-4-ylacetyl)-1,2,3,6-tetrahydropyridin-4-yl]benzamide] | 0.00948 µM | 0.183 µM | 0.000881 µM
O=C(NCc1ccc2nccn2c1)c1ccc(C2=CCN(C(=O)CC3CCOCC3)CC2)cc1 [Example 93, N-(imidazo[1,2-a]pyridin-6-ylmethyl)-4-[1-(tetrahydro-2H-pyran-4-ylacetyl)-1,2,3,6-tetrahydropyridin-4-yl]benzamide] | 0.00713 µM | 0.389 µM | 0.00139 µM
O=C(NCc1ccc2nccn2c1)c1ccc(C2=CCN(C(=O)CC3CCOC3)CC2)cc1 (stereo not drawn) [Example 94, N-(imidazo[1,2-a]pyridin-6-ylmethyl)-4-[1-(tetrahydrofuran-3-ylacetyl)-1,2,3,6-tetrahydropyridin-4-yl]benzamide] | 0.0142 µM | 0.29 µM | 0.000593 µM
CC(C)OCC(=O)N1CC=C(c2ccc(C(=O)NCc3ccc4nccn4c3)cc2)CC1 [Example 98, N-(imidazo[1,2-a]pyridin-6-ylmethyl)-4-{1-[(propan-2-yloxy)acetyl]-1,2,3,6-tetrahydropyridin-4-yl}benzamide] | 0.0194 µM | 0.12 µM | 0.000367 µM
O=C(NCc1ccc2nccn2c1)c1ccc(C2=CCN(C(=O)C3CCCO3)CC2)cc1 (stereo not drawn) [Example 99, N-(imidazo[1,2-a]pyridin-6-ylmethyl)-4-[1-(tetrahydrofuran-2-ylcarbonyl)-1,2,3,6-tetrahydropyridin-4-yl]benzamide] | 0.0264 µM | 0.119 µM | 0.000411 µM
O=C(NCc1ccc2nccn2c1)c1ccc(C2=CCN(C(=O)C3CCOC3)CC2)cc1 (stereo not drawn) [Example 100, N-(imidazo[1,2-a]pyridin-6-ylmethyl)-4-[1-(tetrahydrofuran-3-ylcarbonyl)-1,2,3,6-tetrahydropyridin-4-yl]benzamide] | 0.0162 µM | 0.102 µM | 0.000169 µM

Next, values leading:

IC50 (PC3 cells) | IC50 [1] | IC50 (NAMPT) | Structure (SMILES)
0.0659 µM | 0.851 µM | 0.000536 µM | O=C(NCCCCC1CCN(C(=O)C2CCOC2)CC1)Nc1ccc2nccn2c1 (stereo not drawn) [Example 72, 1-imidazo[1,2-a]pyridin-6-yl-3-{4-[1-(tetrahydrofuran-3-ylcarbonyl)piperidin-4-yl]butyl}urea]
0.014 µM | 0.356 µM | 0.000222 µM | O=C(NCCCCC1CCN(C(=O)C2CCCO2)CC1)Nc1ccc2nccn2c1 (stereo not drawn) [Example 74, 1-imidazo[1,2-a]pyridin-6-yl-3-{4-[1-(tetrahydrofuran-2-ylcarbonyl)piperidin-4-yl]butyl}urea]
0.185 µM | 0.993 µM | 0.000739 µM | O=C(Cc1ccc(NC(=O)CC2CCCC2)cc1)Nc1ccc2nccn2c1 [Example 76, 2-cyclopentyl-N-{4-[2-(imidazo[1,2-a]pyridin-6-ylamino)-2-oxoethyl]phenyl}acetamide]
0.00745 µM | 0.121 µM | 0.00697 µM | O=C(CC1CCOCC1)Nc1ccc(C(=O)NCc2ccc3nccn3c2)cc1 [Example 79, N-(imidazo[1,2-a]pyridin-6-ylmethyl)-4-[(tetrahydro-2H-pyran-4-ylacetyl)amino]benzamide]
0.0194 µM | 0.228 µM | 0.00571 µM | O=C(CN1CCOCC1)Nc1ccc(C(=O)NCc2ccc3nccn3c2)cc1 [Example 80, N-(imidazo[1,2-a]pyridin-6-ylmethyl)-4-[(morpholin-4-ylacetyl)amino]benzamide]
0.0071 µM | 0.0155 µM | 0.00268 µM | O=C(CCC1CCCC1)Nc1ccc(C(=O)NCc2ccc3nccn3c2)cc1 [Example 81, 4-[(3-cyclopentylpropanoyl)amino]-N-(imidazo[1,2-a]pyridin-6-ylmethyl)benzamide]
2.61 µM | 4.07 µM | 0.00141 µM | O=C(NCc1ccc2nccn2c1)c1cnc(N2CCc3ccccc3CC2)s1 [Example 85, N-(imidazo[1,2-a]pyridin-6-ylmethyl)-2-(1,2,4,5-tetrahydro-3H-3-benzazepin-3-yl)-1,3-thiazole-5-carboxamide]
0.0106 µM | 0.201 µM | 0.000991 µM | O=C(NCc1ccc2nccn2c1)c1ccc(C2=CCN(C(=O)CC3CCCO3)CC2)cc1 (stereo not drawn) [Example 95, N-(imidazo[1,2-a]pyridin-6-ylmethyl)-4-[1-(tetrahydrofuran-2-ylacetyl)-1,2,3,6-tetrahydropyridin-4-yl]benzamide]
0.00965 µM | 0.192 µM | 0.00156 µM | O=C(NCc1ccc2nccn2c1)c1ccc(C2=CCN(C(=O)CCC3CCCO3)CC2)cc1 (stereo not drawn) [Example 96, N-(imidazo[1,2-a]pyridin-6-ylmethyl)-4-{1-[3-(tetrahydrofuran-2-yl)propanoyl]-1,2,3,6-tetrahydropyridin-4-yl}benzamide]
0.00455 µM | 0.109 µM | 0.000333 µM | O=C(NCc1ccc2nccn2c1)c1ccc(C2=CCN(C(=O)CC3CCCC3)CC2)cc1 [Example 97, 4-[1-(cyclopentylacetyl)-1,2,3,6-tetrahydropyridin-4-yl]-N-(imidazo[1,2-a]pyridin-6-ylmethyl)benzamide]
